Patent US6063814A, “Phorbol esters as anti-neoplastic and white blood cell elevating agents” (priority 1997, dated 2000)

System: HL-60 cells
Experiment: TPA + low doses of Ara-C, HL-60 differentiation
Assay type: cell-based, human
Conditions: Ara-C alone, low dose 100 ng/ml
Source text: (2) TPA+Low Doses of Ara-C:

## Nc1ccn([C@@H]2O[C@H](CO)[C@@H](O)[C@@H]2O)c(=O)n1 [Ara-C, cytarabine, reference compound]
  HL-60 cell differentiation: could induce cell differentiation
